Test results reported in patent US9999222B2, “Herbicidal combination comprising azines” (BASF SE, priority 2014, dated 2018).
“And” between values parts separate entries of the source, which are not always exact repeats. Equal values may be shown once. Read-outs that look alike come from different tables or passages of the source.

Key:
Assay in all cases: Greenhouse test, pre-emergence treatment
[1] = tested on: PHACA; assay type: in vivo, Phalaris canariensis
Description: (§1) The culture containers used were plastic flowerpots containing loamy sand with approximately 3.0% of humus as the substrate. The seeds of the test plants were sown separately for each species.
(§2) For the pre-emergence treatment, the active ingredients, which had been suspended or emulsified in water, were applied directly after sowing by means of finely distributing nozzles. The containers were irrigated gently to promote germination and growth and subsequently covered with transparent plastic hoods until the plants had rooted. This cover caused uniform germination of the test plants, unless this had been impaired by the active ingredients.
(§3) Depending on the species, the plants were kept at 10-25° C. or 20-35° C., respectively.
(§4) The test period extended over 2 to 4 weeks. During this time, the plants were tended, and their response to the individual treatments was evaluated.
(§5) Evaluation was carried out using a scale from 0 to 100. 100 means no emergence of the plants, or complete destruction of at least the aerial moieties, and 0 means no damage, or normal course of growth. A moderate herbicidal activity is given at values of at least 60, a good herbicidal activity is given at values of at least 70, and a very good herbicidal activity is given at values of at least 85.
(§6) The respective stated components a and b, and if appropriate, c were formulated as a 10% by weight strength emulsion concentrate and, with addition of the amount of solvent system, introduced into the spray liquor used for applying the active compound.
(§7) In the examples, the solvent used was water.
(§8) In the examples below, using the method of S. R. Colby (1967) “Calculating synergistic and antagonistic responses of herbicide combinations”, Weeds 15, p. 22ff., the value E, which is expected if the activity of the individual active compounds is only additive, was calculated. E=X+Y−(X·Y/100) where • X=percent activity using active compound a at an application rate A; • Y=percent activity using active compound b at an application rate B; • E=expected activity (in %) by a+b at application rates A+B.
(§9) If the value found experimentally is higher than the value E calculated according to Colby, a synergistic effect is present.

[2] = tested on: ALOMY; assay type: in vivo, Alopecurus myosuroides
Description: as §1, §2, §3, §4, §5, §6, §7, §8, §9

[3] = tested on: KCHSC; assay type: in vivo, Kochia scoparia; conditions: for inhibition at 31 g/ha: use rate 31 g ai/ha; for inhibition at 62 g/ha: use rate 62 g ai/ha; for observed % activity: 20 DAT
Method in brief: (§10)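 Seeds were sown in loamy sand with about 3.0% humus, and compounds in water were sprayed immediately after sowing, alone or as combinations formulated as 10% emulsion concentrates. Plants grew under hoods until rooted, at 10-25 °C or 20-35 °C by species, for 2 to 4 weeks. Damage was scored 0-100 (100 = no emergence or complete destruction), and Colby expected values were E=X+Y−(X·Y/100).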

[4] = tested on: POLCO; assay type: in vivo, Polygonum convolvulus; conditions: for inhibition at 62 g/ha: use rate 62 g ai/ha; for observed % activity: 20 DAT
Method in brief: as §10

[5] = tested on: VIOAR; assay type: in vivo, Viola arvensis; conditions: Viola arvensis, 480 h, read-out: observed % activity 20 DAT
Description: as §1, §2, §3, §4, §5, §6, §7, §8, §9

[6] = tested on: LOLMU; assay type: in vivo, Lolium multiflorum; conditions: for observed % activity: 20 DAT
Description: as §1, §2, §3, §4, §5, §6, §7, §8, §9

[7] = tested on: SETFA; assay type: in vivo, Setaria faberi; conditions: for inhibition at 7.75 g/ha / inhibition at 15.5 g/ha: Setaria faberi, 480 h, read-out: observed % activity 20 DAT; for inhibition at 15.5 g/ha: use rate 15.5 g ai/ha
Description: as §1, §2, §3, §4, §5, §6, §7, §8, §9

[8] = tested on: ECHCG; assay type: in vivo, Echinocloa crus-galli; conditions: Echinochloa crus-galli, 480 h, read-out: observed % activity 20 DAT
Description: as §1, §2, §3, §4, §5, §6, §7, §8, §9

[9] = tested on: APESV; assay type: in vivo, Apera spica-venti; conditions: use rate 15.5 g ai/ha
Description: as §1, §2, §3, §4, §5, §6, §7, §8, §9

[10] = tested on: GERPU; assay type: in vivo, Geranium pusillum; conditions: pre-emergence, pre-emergence
Method in brief: as §10

[11] = tested on: GALAP; assay type: in vivo, Galium aparine; conditions: 20 DAT
Method in brief: as §10

[12] = tested on: AVEFA; assay type: in vivo, Avena fatua; conditions: 250 g ai/ha, 20 DAT
Description: as §1, §2, §3, §4, §5, §6, §7, §8, §9

[13] = tested on: SORHA; assay type: in vivo, Sorghum halepense; conditions: 125 g ai/ha, 20 DAT
Description: as §1, §2, §3, §4, §5, §6, §7, §8, §9

[14] = pre-emergence, use rate 15.5 g ai/ha
[15] = pre-emergence, use rate 31 g ai/ha
[16] = pre-emergence, use rate 62 g ai/ha
[17] = pre-emergence, use rate 7.75 g ai/ha
[18] = Bassia scoparia, pre-emergence, 480 h, KCHSC, pre-emergence, individual, read-out: observed % activity 20 DAT
[19] = Bassia scoparia, pre-emergence, 480 h, pre-emergence, read-out: observed % activity 20 DAT

Which inhibition at 31 g/ha ([1]; Phalaris canariensis, pre-emergence, 480 h, pre-emergence, use rate 31 g ai/ha, read-out: observed % activity 20 DAT) does the source give for CC(C)(F)c1nc(N)nc(Nc2c(F)cccc2F)n1 [compound 10, N4-(2,6-difluorophenyl)-6-(1-fluoro-1-methyl-ethyl)-1,3,5-triazine-2,4-diamine] here?
The inhibition at 31 g/ha was 80%.

What about the inhibition at 62 g/ha ([1]; Phalaris canariensis, pre-emergence, 480 h, pre-emergence, use rate 62 g ai/ha, read-out: observed % activity 20 DAT) of the same compound?
Its inhibition at 62 g/ha is 75%.

What about the “observed % activity 20 DAT” value [1, 14] of the same compound?
The value was 60%.

And the “observed % activity 20 DAT” value [1, 15]?
The value was 85%.

What about the “observed % activity 20 DAT” value [1, 16] of the same compound?
The value was 70%.

And the inhibition at 15.5 g/ha ([2]; Alopecurus myosuroides, pre-emergence, 480 h, ALOMY, pre-emergence, individual, use rate 15.5 g ai/ha, read-out: observed % activity 20 DAT)?
The inhibition at 15.5 g/ha was 65%.

What about the inhibition at 31 g/ha ([2]; Alopecurus myosuroides, pre-emergence, 480 h, ALOMY, pre-emergence, individual, use rate 31 g ai/ha, read-out: observed % activity 20 DAT) of the same compound?
The inhibition at 31 g/ha was 90%.

What about the inhibition at 62 g/ha ([2]; Alopecurus myosuroides, pre-emergence, 480 h, ALOMY, pre-emergence, individual, use rate 62 g ai/ha, read-out: observed % activity 20 DAT) of the same compound?
The inhibition at 62 g/ha was 90%.

And the inhibition at 7.75 g/ha ([2]; Alopecurus myosuroides, pre-emergence, 480 h, pre-emergence, use rate 7.75 g ai/ha, read-out: observed % activity 20 DAT)?
The inhibition at 7.75 g/ha was 65%.

And the inhibition at 31 g/ha ([2]; Alopecurus myosuroides, pre-emergence, 480 h, pre-emergence, use rate 31 g ai/ha, read-out: observed % activity 20 DAT)?
Its inhibition at 31 g/ha is 90%.

And the inhibition at 62 g/ha ([2]; Alopecurus myosuroides, pre-emergence, 480 h, pre-emergence, use rate 62 g ai/ha, read-out: observed % activity 20 DAT)?
The inhibition at 62 g/ha was 90%.

What about the “observed % activity 20 DAT” value [2, 17] of the same compound?
The value was 75%.

What about the “observed % activity 20 DAT” value [2, 14] of the same compound?
The value was 70% and 95%.

And the “observed % activity 20 DAT” value [2, 15]?
Its value is 98%.

What about the “observed % activity 20 DAT” value [2, 16] of the same compound?
The value was 95% and 98%.

What about the inhibition at 31 g/ha [3, 18] of the same compound?
The inhibition at 31 g/ha was 75%.

What about the inhibition at 62 g/ha [3, 18] of the same compound?
The inhibition at 62 g/ha was 90%.

And the inhibition at 16.5 g/ha ([3]; Bassia scoparia, pre-emergence, 480 h, pre-emergence, use rate 16.5 g ai/ha, read-out: observed % activity 20 DAT)?
The inhibition at 16.5 g/ha was 65%.

What about the inhibition at 31 g/ha [3, 19] of the same compound?
The inhibition at 31 g/ha was 95%.

What about the inhibition at 62 g/ha [3, 19] of the same compound?
The inhibition at 62 g/ha was 90%.

And the “observed % activity 20 DAT” value [3, 17]?
Its value is 85% and 55%.

And the “observed % activity 20 DAT” value [3, 14]?
Its value is 85%.

And the inhibition at 62 g/ha ([4]; Fallopia convolvulus, pre-emergence, 480 h, POLCO, pre-emergence, individual, read-out: observed % activity 20 DAT)?
Its inhibition at 62 g/ha is 95%.

What about the inhibition at 7.75 g/ha ([4]; Fallopia convolvulus, pre-emergence, 480 h, pre-emergence, use rate 7.75 g ai/ha, read-out: observed % activity 20 DAT) of the same compound?
Its inhibition at 7.75 g/ha is 70%.

What about the inhibition at 15.5 g/ha ([4]; Fallopia convolvulus, pre-emergence, 480 h, pre-emergence, use rate 15.5 g ai/ha, read-out: observed % activity 20 DAT) of the same compound?
Its inhibition at 15.5 g/ha is 90%.

And the inhibition at 62 g/ha ([4]; Fallopia convolvulus, pre-emergence, 480 h, pre-emergence, read-out: observed % activity 20 DAT)?
Its inhibition at 62 g/ha is 95%.

And the “observed % activity 20 DAT” value [4, 17]?
Its value is 75%.

And the inhibition at 7.75 g/ha ([5]; use rate 7.75 g ai/ha)?
Its inhibition at 7.75 g/ha is 90%.

What about the inhibition at 15.5 g/ha ([5]; use rate 15.5 g ai/ha) of the same compound?
The inhibition at 15.5 g/ha was 85%.

What about the inhibition at 7.75 g/ha ([6]; Lolium multiflorum, pre-emergence, 480 h, LOLMU, pre-emergence, individual, use rate 7.75 g ai/ha, read-out: observed % activity 20 DAT) of the same compound?
The inhibition at 7.75 g/ha was 30%.

What about the inhibition at 31 g/ha ([6]; Lolium multiflorum, pre-emergence, 480 h, LOLMU, pre-emergence, individual, use rate 31 g ai/ha, read-out: observed % activity 20 DAT) of the same compound?
Its inhibition at 31 g/ha is 70%.

What about the inhibition at 31 g/ha ([6]; Lolium multiflorum, pre-emergence, 480 h, pre-emergence, use rate 31 g ai/ha, read-out: observed % activity 20 DAT) of the same compound?
Its inhibition at 31 g/ha is 70%.

What about the inhibition at 62 g/ha ([6]; Lolium multiflorum, pre-emergence, 480 h, pre-emergence, use rate 62 g ai/ha, read-out: observed % activity 20 DAT) of the same compound?
Its inhibition at 62 g/ha is 90%.

And the “observed % activity 20 DAT” value [6, 17]?
Its value is 15% and 20% and 0%.

And the “observed % activity 20 DAT” value [6, 14]?
Its value is 35% and 50% and 25%.

And the “observed % activity 20 DAT” value [6, 15]?
Its value is 80%.

And the “observed % activity 20 DAT” value [6, 16]?
Its value is 85%.

And the inhibition at 7.75 g/ha ([7]; SETFA, individual, use rate 7.75 g ai/ha)?
Its inhibition at 7.75 g/ha is 90%.

What about the inhibition at 15.5 g/ha ([7]; SETFA, individual) of the same compound?
The inhibition at 15.5 g/ha was 98%.

What about the inhibition at 7.75 g/ha ([7]; use rate 7.75 g ai/ha) of the same compound?
Its inhibition at 7.75 g/ha is 75%.

And the inhibition at 15.5 g/ha [7]?
Its inhibition at 15.5 g/ha is 95%.

What about the “observed % activity 20 DAT” value ([7]; use rate 7.75 g ai/ha) of the same compound?
The value was 65%.

And the inhibition at 7.75 g/ha ([8]; use rate 7.75 g ai/ha)?
The inhibition at 7.75 g/ha was 90%.

And the inhibition at 15.5 g/ha ([8]; use rate 15.5 g ai/ha)?
Its inhibition at 15.5 g/ha is 95%.

What about the inhibition at 15.5 g/ha ([9]; Apera spica-venti, 480 h, read-out: observed % activity 20 DAT) of the same compound?
Its inhibition at 15.5 g/ha is 95%.

And the “observed % activity 20 DAT” value [9]?
Its value is 98%.

And the inhibition at 15.5 g/ha ([10]; Geranium pusillum, 480 h, use rate 15.5 g ai/ha, read-out: observed % activity 20 DAT)?
Its inhibition at 15.5 g/ha is 75%.

And the “observed % activity 20 DAT” value ([10]; use rate 7.75 g ai/ha)?
Its value is 50%.

Which observed % activity ([1]; 125 g ai/ha, 20 DAT) does the source give for COC[C@H](C)N(C(=O)CCl)c1c(C)csc1C [dimethenamid-P] here?
The observed % activity was 80%.

What about the observed % activity ([2]; 125 g ai/ha, 20 DAT) of the same compound?
Its observed % activity is 45%.

And the observed % activity ([3]; 125 g ai/ha)?
The observed % activity was 40%.

And the observed % activity ([3]; 250 g ai/ha)?
Its observed % activity is 85%.

And the observed % activity ([4]; 125 g ai/ha)?
The observed % activity was 55%.

What about the observed % activity ([4]; 250 g ai/ha) of the same compound?
The observed % activity was 50%.

And the observed % activity ([11]; 125 g ai/ha)?
The observed % activity was 30%.

And the observed % activity ([11]; 250 g ai/ha)?
The observed % activity was 50%.

What about the observed % activity ([6]; 125 g ai/ha) of the same compound?
The observed % activity was 95%.

What about the observed % activity ([6]; 250 g ai/ha) of the same compound?
The observed % activity was 95%.

What about the observed % activity [12] of the same compound?
Its observed % activity is 65%.

What about the observed % activity [13] of the same compound?
Its observed % activity is 98%.
